In ChEMBL document CHEMBL6121046, “Discovery of Novel Hydrazide-Based HDAC3 Inhibitors as Epigenetic Immunomodulators for Cancer Immunotherapy” (J Med Chem, 2025):
Activity calls are given as the source filed them. No cut-off for these calls is given here.

Assays:
[1] = Toxicity in C57BL/6 mouse allografted with mouse MC38 cells assessed as pathological changes in kidney at 50 mg/kg, po treated 5 days after cell inoculation 19 th day by hematoxylin and eosin analysis; type: organism-based; conditions: in vivo, 360 h, time 15 day
MCF7 = assay: Antiproliferative activity against human MCF7 cells measured after 48 hrs incubation by MTT assay relative to control; type: functional, cell-based; conditions: MCF7, 48 h
MC-38 [2] = assay: In vivo antitumor activity against mouse MC38 cells allografted in C57BL/6 mouse assessed as tumor growth inhibition at 50 mg/kg, po treated 5 days after cell inoculation 19 th day relative to control; type: functional; conditions: MC-38, 360 h, time 15 day, read-out: TGI
MC-38 [3] = assay: Induction of apoptosis in mouse MC38 cells assessed as early apoptotic cells at 2 uM measured after 48 hrs by FITC/PI staining based flow cytometry (Rvb =12.27%); type: functional
MC-38 [4] = assay: Cell cycle arrest in mouse MC38 cells assessed as decrease in accumulation of cells at G0/G1 phase measured after 48 hrs by flow cytometry; type: functional, cell-based; conditions: dose 1-8 µM
MC-38 [5] = assay: Induction of apoptosis in mouse MC38 cells assessed as late apoptotic cells at 2 uM measured after 48 hrs by FITC/PI staining based flow cytometry (reference value: 5.07%); type: functional
MC-38 [6] = assay: Induction of apoptosis in mouse MC38 cells assessed as late apoptotic cells at 8 uM measured after 48 hrs by FITC/PI staining based flow cytometry (reference value: 5.07%); type: functional
MC-38 [7] = assay: Induction of apoptosis in mouse MC38 cells assessed as late apoptotic cells at 4 uM measured after 48 hrs by FITC/PI staining based flow cytometry (reference value: 5.07%); type: functional
MC-38 [8] = assay: Induction of apoptosis in mouse MC38 cells assessed as viable cells at 8 uM measured after 48 hrs by FITC/PI staining based flow cytometry (reference value: 82.07%); type: functional; conditions: read-out: Activity
MC-38 [9] = assay: Induction of apoptosis in mouse MC38 cells assessed as early apoptotic cells at 1 uM measured after 48 hrs by FITC/PI staining based flow cytometry (Rvb =12.27%); type: functional
[10] = Antiproliferative activity against […] cells measured after 48 hrs incubation by MTT assay relative to control; type: functional, cell-based; conditions: Mus musculus, Lung cancer cell line
MC-38 [11] = assay: In vivo antitumor activity against mouse MC38 cells allografted in C57BL/6 mouse assessed as increase in Tunel-positive cells in tumor at 50 mg/kg, po treated 5 days after cell inoculation 19 th day by immunofluorescence analysis; type: functional, organism-based; conditions: time 15.0 day
Mus musculus [12] = assay: Immunomodulatory effect in C57BL/6 mouse allografted mouse MC38 cells assessed as increase in tumor infiltrating lymphocytes by measuring increase in CD4+ T helper cells in mouse blood in presence of NP19 PD-L1 inhibitor at 50 mg/kg, po treated 5 days after cell inoculation 19 th day by flow cytometry analysis (reference value: 0.27%); type: functional; conditions: time 15 day
MC-38 [13] = assay: Induction of apoptosis in mouse MC38 cells assessed as early apoptotic cells at 4 uM measured after 48 hrs by FITC/PI staining based flow cytometry (Rvb =12.27%); type: functional
B16-F10 (Mus musculus) = assay: Antiproliferative activity against mouse B16-F10 cells measured after 48 hrs incubation by MTT assay relative to control; conditions: B16-F10, 48 h
MC-38 [14] = assay: Induction of mitochondrial membrane damage in mouse MC38 cells assessed as increase in JC-1 monomers by measuring green fluorescence at 1 uM measured after 48 hrs (reference value: 3.13%); type: functional
MC-38 [15] = assay: Induction of ROS production in mouse MC38 cells assessed as increase in intracellular ROS level measured after 48 hrs by flow cytometry; type: functional, cell-based
Histone deacetylase 1 = Histone deacetylase 1 (Homo sapiens, UniProt Q13547); assay: Inhibition of human recombinant HDAC1 pre-incubated with compounds for 10 mins measured followed by 60 mins of substrate addition
Histone deacetylase 1, sequence (Q13547 whole entry): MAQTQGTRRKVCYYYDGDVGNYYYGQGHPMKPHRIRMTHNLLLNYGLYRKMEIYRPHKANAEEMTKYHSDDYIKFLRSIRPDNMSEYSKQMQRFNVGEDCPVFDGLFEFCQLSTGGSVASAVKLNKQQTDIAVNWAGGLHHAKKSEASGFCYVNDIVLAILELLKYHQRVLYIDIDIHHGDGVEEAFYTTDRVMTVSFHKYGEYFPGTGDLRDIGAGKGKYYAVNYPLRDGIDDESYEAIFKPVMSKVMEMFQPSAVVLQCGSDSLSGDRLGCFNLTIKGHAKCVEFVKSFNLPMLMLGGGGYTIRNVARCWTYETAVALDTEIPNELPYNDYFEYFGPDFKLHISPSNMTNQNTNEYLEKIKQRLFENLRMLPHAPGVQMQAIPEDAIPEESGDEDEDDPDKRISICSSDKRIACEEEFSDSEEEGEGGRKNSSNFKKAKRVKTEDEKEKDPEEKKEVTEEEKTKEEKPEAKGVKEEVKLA

MC-38 [16] = assay: Induction of apoptosis in mouse MC38 cells assessed as viable cells at 2 uM measured after 48 hrs by FITC/PI staining based flow cytometry (reference value: 82.07%); type: functional; conditions: read-out: Activity
MC-38 [17] = assay: Induction of apoptosis in mouse MC38 cells assessed as necrotic cells at 1 uM measured after 48 hrs by FITC/PI staining based flow cytometry (reference value: 0.56%); type: functional
MC-38 [18] = assay: In vivo antitumor activity against mouse MC38 cells allografted in C57BL/6 mouse assessed as increase in Tunel-positive cells in tumor in presence of NP19 PD-L1 inhibitor at 50 mg/kg, po treated 5 days after cell inoculation 19 th day by immunofluorescence analysis; type: functional, organism-based; conditions: time 15.0 day
Histone deacetylase 8 = target: T1, Histone deacetylase 8 (Homo sapiens, UniProt Q9BY41); assay: Inhibition of human recombinant HDAC8 pre-incubated with compounds for 10 mins measured followed by 60 mins of substrate addition
T1 sequence (Q9BY41 whole entry): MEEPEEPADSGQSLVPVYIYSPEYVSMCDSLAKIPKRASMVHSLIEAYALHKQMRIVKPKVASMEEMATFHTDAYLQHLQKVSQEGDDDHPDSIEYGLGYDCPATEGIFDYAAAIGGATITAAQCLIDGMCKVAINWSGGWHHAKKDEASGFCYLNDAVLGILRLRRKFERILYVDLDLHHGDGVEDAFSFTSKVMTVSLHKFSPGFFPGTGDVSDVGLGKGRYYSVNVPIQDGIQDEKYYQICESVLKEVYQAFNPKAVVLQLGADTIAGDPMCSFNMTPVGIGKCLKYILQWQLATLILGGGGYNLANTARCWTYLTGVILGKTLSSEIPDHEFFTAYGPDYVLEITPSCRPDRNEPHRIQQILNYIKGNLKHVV

MC-38 [19] = assay: Increase in acetylated H3 in mouse MC38 cells at 0.1 to 2 uM measured after 24 hrs incubation by Western blot analysis; type: functional, cell-based; conditions: dose 0.1-2 µM
MC-38 [20] = assay: Induction of mitochondrial membrane damage in mouse MC38 cells assessed as increase in JC-1 monomers by measuring green fluorescence at 8 uM measured after 48 hrs (reference value: 3.13%); type: functional
MC-38 [21] = assay: Induction of apoptosis in mouse MC38 cells assessed as viable cells at 1 uM measured after 48 hrs by FITC/PI staining based flow cytometry (reference value: 82.07%); type: functional; conditions: read-out: Activity
B16-F10 = assay: Antiproliferative activity against mouse B16-F10 cells at 1 uM measured after 48 hrs incubation by MTT assay relative to control
Mus musculus [22] = assay: Immunomodulatory effect in C57BL/6 mouse allografted mouse MC38 cells assessed as increase in tumor infiltrating lymphocytes by measuring increase in […] in mouse spleen at 50 mg/kg, po treated 5 days after cell inoculation 19 th day by flow cytometry analysis (reference value: 13.6%); type: functional; conditions: time 15 day
MC-38 [23] = assay: Induction of apoptosis in mouse MC38 cells assessed as necrotic cells at 8 uM measured after 48 hrs by FITC/PI staining based flow cytometry (reference value: 0.56%); type: functional
MC-38 [24] = assay: Induction of PD-L1 expression in mouse MC38 cells measured after 24 hrs incubation by Western blot analysis; type: functional, cell-based; conditions: dose 1-4 µM
HepG2 = assay: Antiproliferative activity against human HepG2 cells measured after 48 hrs incubation by MTT assay relative to control; type: functional, cell-based; conditions: HepG2, 48 h

With CCCNNC(=O)c1ccc(CNC(=O)c2cnc(-c3ccc4occc4c3)[nH]2)cc1 the Activity [1] was “Non-toxic”, the IC50 (MCF7) was 1900 nM and the inhibition in vivo at 50 mg/kg (MC-38 [2]) was 63%. The Activity (MC-38 [3]) was 31.2%, the Activity (MC-38 [4]) was “Dose-dependent-effect” and the Activity (MC-38 [5]) was 28.73%. It also gave an Activity (MC-38 [6]) of 60.9%, an Activity (MC-38 [7]) of 54.95% and a viability at 8 µM (MC-38 [8]) of 16.4%. The Activity (MC-38 [9]) was 11.97%, the IC50 [10] was 1030 nM and the Activity (MC-38 [11]) was “Active”. The Activity (Mus musculus [12]) was 0.98%, the Activity (MC-38 [13]) was 24.75% and the IC50 (B16-F10 (Mus musculus)) was 2690 nM. The Activity (MC-38 [14]) was 6.34%, the Activity (MC-38 [15]) was “Dose-dependent-effect” and the IC50 (Histone deacetylase 1) was 3980 nM. The viability at 2 µM (MC-38 [16]) was 37.9%, the Activity (MC-38 [17]) was 3.72% and the Activity (MC-38 [18]) was “Active”. The IC50 (Histone deacetylase 8) was over 10000 nM, the Activity (MC-38 [19]) was “Active” and the Activity (MC-38 [20]) was 28.37%. For the same molecule, the viability at 1 µM (MC-38 [21]) was 49.3%, the Activity (B16-F10) was 54.57% and the Activity (Mus musculus [22]) was 14.1%. The Activity (MC-38 [23]) was 2.85%, the Activity (MC-38 [24]) was “Dose-dependent-effect” and the IC50 (HepG2) was 330 nM.

With CCCNNC(=O)c1ccc(CNC(=O)c2cnc(-c3cccc4ccccc34)[nH]2)cc1 the IC50 (MCF7) was 2160 nM, the Activity (MC-38 [3]) was 18.6% and the Activity (MC-38 [4]) was “Dose-dependent-effect”. It also gave an Activity (MC-38 [5]) of 41.1%, an Activity (MC-38 [6]) of 46.63% and an Activity (MC-38 [7]) of 26.83%. For the same molecule, the viability at 8 µM (MC-38 [8]) was 22.2%, the Activity (MC-38 [9]) was 15.8% and the IC50 [10] was 930 nM. It also gave an Activity (MC-38 [13]) of 43.9%, an IC50 (B16-F10 (Mus musculus)) of 2470 nM and an IC50 (Histone deacetylase 1) of 2030 nM. It also gave a viability at 2 µM (MC-38 [16]) of 31.3%, an Activity (MC-38 [17]) of 2.9% and an IC50 (Histone deacetylase 8) of over 10000 nM. The Activity (MC-38 [19]) was “Active”, the viability at 1 µM (MC-38 [21]) was 50.7% and the Activity (B16-F10) was 55.07%. For the same molecule, the Activity (MC-38 [23]) was 8.29%, the Activity (MC-38 [24]) was “Dose-dependent-effect” and the IC50 (HepG2) was 370 nM.
